Measured values taken from US10258617B2, “Dosing regimens for fast onset of antidepressant effect” (H. Lundbeck A/S, priority 2016, dated 2019).
Read-outs that look alike come from different tables or passages of the source.

What was measured:
5-HT1B receptor = target: T1, 5-HT1B receptor (Macaca mulatta, UniProt F6SFA9); test: Example 1 PET monkey study: change in [11C]AZ10419369-5-HT1B receptor binding potential (BPND); assay type: in vivo, rhesus monkeys; conditions: rhesus monkey, iv, Citalopram 0.3 mg/kg IV, mean±standard error, n=3, read-out: ΔBPND (% of baseline)
T1 construct: assess changes in the endogenous serotonin concentration in living rhesus monkeys; from tissue; host or cells: brain of living rhesus monkeys (PET)
T1 sequence (F6SFA9 1-390): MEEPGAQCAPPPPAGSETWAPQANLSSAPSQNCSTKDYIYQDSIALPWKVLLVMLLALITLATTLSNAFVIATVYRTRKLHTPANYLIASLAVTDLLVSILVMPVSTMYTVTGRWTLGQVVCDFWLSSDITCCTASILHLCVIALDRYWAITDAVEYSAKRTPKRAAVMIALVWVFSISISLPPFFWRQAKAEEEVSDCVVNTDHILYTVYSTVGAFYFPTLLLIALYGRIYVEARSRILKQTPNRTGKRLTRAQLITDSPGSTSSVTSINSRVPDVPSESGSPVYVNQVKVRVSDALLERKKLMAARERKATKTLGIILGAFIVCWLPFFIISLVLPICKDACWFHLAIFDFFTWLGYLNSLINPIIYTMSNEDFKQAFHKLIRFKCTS
From the text: Positron Emission Tomography (PET) was used to assess changes in the endogenous serotonin concentration in living rhesus monkeys. The objective of the present study was two-fold. […] The chemical name for [^11C]MADAM is [^11C] N,N-dimethyl-2-(2-amino-4-methylphenylthio)benzylamine.
FIG. 1 illustrates the study design used for assessment of serotonin releasing capacities. A similar study design was applied for assessment of SERT occupancy.

[1] = Example 3 clinical trial: vortioxetine plasma levels and simulated AUC0-24; assay type: in vivo; conditions: human; for concentration at 2 h: Day 0, 2 hours; for concentration at 8 h: Day 0, 8 hours; for concentration at 24 h: Day 0, 24 hours; for concentration at 14 day: Day 14; for AUC(0-t): popPK simulation based on observed data
Method: (§1) Patients randomised to the vortioxetine IV dose regimen, received a single double-blind IV dose of 17 mg vortioxetine, infused over 2 hours, on Day 0 (baseline). Patients randomised to the vortioxetine oral dose regimen received a single double-blind IV dose of placebo (saline), infused over 2 hours, on Day 0. From Day 0 to Day 14, all patients in both treatment groups also received open labelled 10 mg/day vortioxetine by oral administration (tablets).
The popPK model from example 2 was used to simulate vortioxetine plasma levels based on the observed data from Table 5. […] That is, the steady-state plasma level of vortioxetine achieved from the combined IV and oral vortioxetine administration the within 24 hours from the first dosing is essentially the same as the steady-state vortioxetine plasma level achieved at day 14 following the administration of once-daily oral vortioxetine alone in that period.

[2] = tested on: patients with recurrent major depressive disorder; test: Example 3 clinical trial: MADRS and CGI-I efficacy; assay type: in vivo, human; conditions: for Change in 5-item MADRS score, Difference / Change in MADRS total score, Difference: VOR IV + VOR oral versus PBO IV + VOR oral;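 on Change in 5-item MADRS score, Difference: apparent sadness Reported sadness Inner tension Pessimistic thoughts Suicidal thoughts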;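 on Change in 5-item MADRS score, Mean: apparent sadness Reported sadness Inner tension Pessimistic thoughts Suicidal thoughts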
Method: In particular, a total of 55 patients (27 and 28 in each treatment group) were recruited to an interventional, prospective, multi-national, multi-site, randomised, double-blind, parallel-group, fixed-dose study.
The study consisted of a Screening Period—2 to 14-day period from screening to randomisation, a Treatment Period—15-day double-blind treatment period with one initial IV administration of 17 mg vortioxetine or saline and daily oral treatment with vortioxetine 10 mg and a Safety Follow-up Period—4-week period after end of treatment or after withdrawal from the study.
At the Baseline Visit, patients were equally randomised (1:1) to either of the following two dose regimens: vortioxetine 17 mg single dose (IV) and vortioxetine 10 mg/day (tablet) or placebo single dose (IV) and vortioxetine 10 mg/day (tablet).
as §1
Following the IV infusion, patients stayed hospitalised for approximately 24 hours for close observation. After the hospitalisation period, patients continued the study on an outpatient basis.
Efficacy and safety data were collected at Days 0, 1, 3, 7, and 14, including MADRS and clinical global impression […].
The full MADRS scale may not be a suitable tool for gauging the early onset of anti-depressant effect of a drug because some of the ten items addressed in the MADRS test may require longer assessment time to validly assess a given symptom. For example, the MADRS item “Concentration Difficulties” requires that the patient has been exposed to a situation during the treatment where a change in the ability to concentrate could be identified in order for that item to truly reflect a treatment effect.

[3] = PBO IV + VOR oral (10 mg/day), Day 1, N 28
[4] = PBO IV + VOR oral (10 mg/day), Day 3, N 28
[5] = PBO IV + VOR oral (10 mg/day), Day 7, N 28
[6] = other: intravenous infusion plus oral tablets, VOR IV + VOR oral
[7] = VOR IV (17 mg day 0) + VOR oral (10 mg/day), Day 1, N 27
[8] = VOR IV (17 mg day 0) + VOR oral (10 mg/day), Day 3, N 27
[9] = VOR IV (17 mg day 0) + VOR oral (10 mg/day), Day 7, N 27

CN(C)CCCC1(c2ccc(F)cc2)OCc2cc(C#N)ccc21 (centres unmarked) [Citalopram]
change in vivo at 0.3 mg/kg (5-HT1B receptor; Amygdala): 4.6 ± 11.6% | change in vivo at 0.3 mg/kg (5-HT1B receptor; Caudate nucleus): 7.1 ± 7.5% | change in vivo at 0.3 mg/kg (5-HT1B receptor; Dorsal raphe nucleus): -21.2 ± 5.7% | change in vivo at 0.3 mg/kg (5-HT1B receptor; Frontal gyrus): 12.4 ± 9.3% | change in vivo at 0.3 mg/kg (5-HT1B receptor; Globus pallidus): -1.6 ± 9.6% | change in vivo at 0.3 mg/kg (5-HT1B receptor; Hippocampus): 5.4 ± 12.5% | change in vivo at 0.3 mg/kg (5-HT1B receptor; Midbrain): 2.7 ± 5.3% | change in vivo at 0.3 mg/kg (5-HT1B receptor; Occipital gyrup): 15.7 ± 11.1% | change in vivo at 0.3 mg/kg (5-HT1B receptor; Putamen): 7.3 ± 12% | change in vivo at 0.3 mg/kg (5-HT1B receptor; Thalamus): 0.3 ± 5.6% | change in vivo at 0.3 mg/kg (5-HT1B receptor; Ventral striatum): 3.1 ± 10.8%

Cc1ccc(Sc2ccccc2N2CCNCC2)c(C)c1 [PBO IV + VOR oral]
concentration at 2 h ([1]; 10 mg/day, PBO IV + VOR oral): 0.56 ± 1.18 ng/mL | concentration at 8 h ([1]; 10 mg/day, PBO IV + VOR oral): 2.8 ± 1.8 ng/mL | concentration at 24 h ([1]; 10 mg/day, PBO IV + VOR oral): 2.6 ± 1.3 ng/mL | concentration at 14 day ([1]; 10 mg/day, PBO IV + VOR oral): 9.9 ± 5.3 ng/mL | AUC(0-t) ([1]; oral, 10 mg/day, day 0, PBO IV+VOR oral treated patients): 47 ± 20 ng·h/mL | AUC(0-t) ([1]; oral, 10 mg/day, day 14, PBO IV+VOR oral treated patients): 230 ± 85 ng·h/mL | Change in 5-item MADRS score, Mean [2, 3]: −3.92 | Change in MADRS total score, Mean [2, 3]: −5.5 | Change in 5-item MADRS score, Mean [2, 4]: −6.00 | Change in MADRS total score, Mean [2, 4]: −10.3 | Change in 5-item MADRS score, Mean [2, 5]: −7.03 | Change in MADRS total score, Mean [2, 5]: −13.4 | Change in 5-item MADRS score, Mean ([2]; PBO IV + VOR oral (10 mg/day), Day 14, N 28): -9.21 | % responders (CGI-I ≤ 2) ([2]; PBO IV + VOR oral, Day 1): 7.1% | % responders (≥50% reduction on MADRS Scale) ([2]; PBO IV + VOR oral, Day 1): 0% | % responders (CGI-I ≤ 2) ([2]; PBO IV + VOR oral, Day 3): 39.3% | % responders (≥50% reduction on MADRS Scale) ([2]; PBO IV + VOR oral, Day 3): 14.3% | % responders (CGI-I ≤ 2) ([2]; PBO IV + VOR oral, Day 7): 42.9% | % responders (≥50% reduction on MADRS Scale) ([2]; PBO IV + VOR oral, Day 7): 28.6% | % responders (CGI-I ≤ 2) ([2]; PBO IV + VOR oral, Day 14): 67.9% | % responders (≥50% reduction on MADRS Scale) ([2]; PBO IV + VOR oral, Day 14): 50.0%

Cc1ccc(Sc2ccccc2N2CCNCC2)c(C)c1 [VOR IV + VOR oral]
concentration at 2 h [1, 6]: 11.1 ± 9.3 ng/mL | concentration at 8 h [1, 6]: 11 ± 2.9 ng/mL | concentration at 24 h [1, 6]: 8.6 ± 2.6 ng/mL | concentration at 14 day [1, 6]: 10.8 ± 7 ng/mL | AUC(0-t) ([1]; other: intravenous infusion plus oral tablets, day 0, VOR IV+VOR oral treated patients): 251 ± 46 ng·h/mL | Change in 5-item MADRS score, Mean [2, 7]: −5.05 | Change in MADRS total score, Mean [2, 7]: −6.9 | Change in 5-item MADRS score, Mean [2, 8]: −6.96 | Change in MADRS total score, Mean [2, 8]: −12.1 | Change in 5-item MADRS score, Mean [2, 9]: −8.30 | Change in MADRS total score, Mean [2, 9]: −13.7 | Change in 5-item MADRS score, Mean ([2]; VOR IV (17 mg day 0) + VOR oral (10 mg/day), Day 14, N 27): -9.37 | Change in 5-item MADRS score, Difference ([2]; Day 1): −1.13 | Change in MADRS total score, Difference ([2]; Day 1): −1.4 | Change in 5-item MADRS score, Difference ([2]; Day 3): −0.96 | Change in MADRS total score, Difference ([2]; Day 3): −1.7 | Change in 5-item MADRS score, Difference ([2]; Day 7): −1.27 | Change in MADRS total score, Difference ([2]; Day 7): −0.3 | Change in 5-item MADRS score, Difference ([2]; Day 14): −0.16 | % responders (CGI-I ≤ 2) ([2]; VOR IV + VOR oral, Day 1): 18.5% | % responders (≥50% reduction on MADRS Scale) ([2]; VOR IV + VOR oral, Day 1): 3.7% | % responders (CGI-I ≤ 2) ([2]; VOR IV + VOR oral, Day 3): 50.0% | % responders (≥50% reduction on MADRS Scale) ([2]; VOR IV + VOR oral, Day 3): 29.6% | % responders (CGI-I ≤ 2) ([2]; VOR IV + VOR oral, Day 7): 53.8% | % responders (≥50% reduction on MADRS Scale) ([2]; VOR IV + VOR oral, Day 7): 40.7% | % responders (CGI-I ≤ 2) ([2]; VOR IV + VOR oral, Day 14): 73.1% | % responders (≥50% reduction on MADRS Scale) ([2]; VOR IV + VOR oral, Day 14): 48.1%
